Reference: patent US10099045B2, “Administration of antibiotics and therapeutic agents” (priority 2008, dated 2018)
Values joined by “and” are separate entries in the source; they are usually repeats but may differ in a detail not shown here. Equal entries are not always repeated. Where two headings read alike, the source gives them in different places.

Columns and labels:
[1] = Adipose tissue and serum concentration after subcutaneous infusion with transcutaneous ultrasound, elective abdominoplasty; conditions: for blood serum concentration: 1 gm subcutaneous plus ultrasound, when surgery was completed about an hour later
Experimental: A prophylactic dose of the antibiotic Cafazolin was delivered to a patient by the above procedure prior to elective abdominoplasty using the Silberg Tissue Preparation Systems TM Model ME 800 (9801427) Mettler Surgical, Anaheim, Calif.). About 250 cc of prewarmed saline containing 1 gm of Cefazolin was injected under a surgical incision line 201 that was about 5 cm long. Small sample of adipose tissue where taken during the surgical procedure to determine if the Cefazolin would remain above desired concentration reported by Ohge et al., and thus remain sufficiently high through the procedure. Further, blood serum samples were taken during the procedure to determine the potential for a longer term systemic delivery.

[2] = intravenous bolus 1 g, cited from earlier work
STA 29213 MSSA = assay: MIC of Cefazolin, broth dilution method; format: cell-based, S. aureus; conditions: for MIC/Cefazolin: single determinations
From the text: (§1) Accordingly, further tests of Cephazolin with a range of different MRSA strains at concentrations well above the dose achievable by IV delivery were made to understand these finding. The Minimum inhibitory concentration (MIC) of Cephazolin with respect to these various strains is reported below in Table 1 in units are in .mu·g/ml of Cefazolin using the broth dilution method. MIC is the lowest concentration of an antimicrobial that will inhibit the visible growth of a microorganism after overnight incubation. STA 29213 is the conventional strain of S. aureus, showing normal sensitivity to Cefazolin with an MIC of 0.5.mu·g/ml.
(§2) The colony count in the last column is just a quality control measure to insure the correct innooculum.

STA 25923 MSSA = assay: MIC of Cefazolin, broth dilution method; format: cell-based, Staphylococcus aureus
From the text: as §1, §2

MRSA 144 = assay: MIC of Cefazolin, broth dilution method; format: cell-based, Staphylococcus aureus
From the text: as §1, §2

Mu 3 MRSA hVISA = assay: MIC of Cefazolin, broth dilution method; format: cell-based, Staphylococcus aureus; conditions: for MIC/Cefazolin: single determinations
From the text: as §1, §2

MRSA 147 = assay: MIC of Cefazolin, broth dilution method; format: cell-based, Staphylococcus aureus
From the text: as §1, §2

MRSA 145 = assay: MIC of Cefazolin, broth dilution method; format: cell-based, Staphylococcus aureus
From the text: as §1, §2

MRSA 151 = assay: MIC of Cefazolin, broth dilution method; format: cell-based, Staphylococcus aureus
From the text: as §1, §2

MRSA 146 = assay: MIC of Cefazolin, broth dilution method; format: cell-based, Staphylococcus aureus
From the text: as §1, §2

MRSA 143 = assay: MIC of Cefazolin, broth dilution method; format: cell-based, Staphylococcus aureus
From the text: as §1, §2

MRSA 56 (494) = assay: MIC of Cefazolin, broth dilution method; format: cell-based, Staphylococcus aureus
From the text: as §1, §2

MRSA 148 = assay: MIC of Cefazolin, broth dilution method; format: cell-based, Staphylococcus aureus
From the text: as §1, §2

MRSA 149 = assay: MIC of Cefazolin, broth dilution method; format: cell-based, Staphylococcus aureus
From the text: as §1, §2

MRSA 142 ATCC 33591 MRSA = assay: MIC of Cefazolin, broth dilution method; format: cell-based, Staphylococcus aureus
From the text: as §1, §2

MRSA 116 = assay: MIC of Cefazolin, broth dilution method; format: cell-based, Staphylococcus aureus
From the text: as §1, §2

MRSA 152 = assay: MIC of Cefazolin, broth dilution method; format: cell-based, Staphylococcus aureus
From the text: as §1, §2

MRSA 150 = assay: MIC of Cefazolin, broth dilution method; format: cell-based, Staphylococcus aureus
From the text: as §1, §2

Mu 50 MRSA VISA = assay: MIC of Cefazolin, broth dilution method; format: cell-based, Staphylococcus aureus
From the text: as §1, §2

[3] = tested on: methicillin-sensitive Staphylococcus aureus (MSSA), Klebsiella pneumoniae, Escherichia coli, Streptococcus spp.; conditions: 360 MSSA, 204 K. pneumoniae, 314 E. coli, 30 Streptococcus spp. isolates; cited from earlier work
[4] = Staphylococcus aureus, read-out: Median MIC

Cc1nnc(SCC2=C(C(=O)O)N3C(=O)[C@@H](NC(=O)Cn4cnnn4)[C@H]3SC2)s1 [Cefazolin]
blood serum concentration [1]: about 10 μg/ml | blood serum concentration ([1]; listed as antibiotic): less than 10 μg/ml | tissue concentration relative to intravenous administration of Ohge et al. ([1]; human, in vivo): about 50 times | Kp ([1]; human, in vivo, 1 gm): < 10 | serum concentration ([2]; after about 4 hours): about 10 μg/ml | mean tissue concentration ([2]; after slightly more than 2 hours of surgery): below 4 μg/ml | mean tissue concentration ([2]; an hour after surgery commenced): about 10 μg/ml | mean tissue concentration ([2]; an hour after surgery commenced, listed as antibiotic): 10 µg/mL | serum concentration ([2]; end of the same time period (slightly more than 2 hours)): ~40000 ng/mL | serum concentration ([2]; start of the same time period (an hour after surgery commenced)): about 80 μg/ml | MIC (STA 29213 MSSA; [4]): 0.5 µg/mL | MIC/Cefazolin (STA 29213 MSSA; MSSA strain): 1 µg/mL | MIC/Cefazolin (STA 29213 MSSA; conventional S. aureus strain STA 29213): 0.5 µg/mL | MIC (STA 25923 MSSA; [4]): 0.5 µg/mL | MIC/Cefazolin (STA 25923 MSSA; single determinations): 0.5 µg/mL | MIC/Cefazolin (MRSA 144; MRSA 144, single determinations): 64 µg/mL and 128 µg/mL | MIC (MRSA 144; Staphylococcus aureus, MRSA 144, read-out: Median MIC): 64 µg/mL | MIC relative to the dose required for normal strains (Mu 3 MRSA hVISA; MU 3, most resistant strain): about 50 times | MIC/Cefazolin (Mu 3 MRSA hVISA; Mu 3 MRSA hVISA): 512 µg/mL | MIC/Cefazolin (Mu 3 MRSA hVISA; Mu 3 MRSA hVISA, listed as antibiotic): about 512 μg/ml | MIC (Mu 3 MRSA hVISA; Staphylococcus aureus, Mu 3 MRSA hVISA, read-out: Median MIC): 512 µg/mL | MIC/Cefazolin (MRSA 147; MRSA 147, single determinations): 64 µg/mL | MIC (MRSA 147; Staphylococcus aureus, MRSA 147, read-out: Median MIC): 64 µg/mL | MIC/Cefazolin (MRSA 145; MRSA 145, single determinations): 128 µg/mL | MIC (MRSA 145; Staphylococcus aureus, MRSA 145, read-out: Median MIC): 128 µg/mL | MIC/Cefazolin (MRSA 151; MRSA 151, single determinations): 128 µg/mL | MIC (MRSA 151; Staphylococcus aureus, MRSA 151, read-out: Median MIC): 128 µg/mL | MIC/Cefazolin (MRSA 146; MRSA 146, single determinations): 64 µg/mL and 128 µg/mL | MIC (MRSA 146; Staphylococcus aureus, MRSA 146, read-out: Median MIC): 64 µg/mL | MIC/Cefazolin (MRSA 143; MRSA 143, single determinations): 64 µg/mL and 128 µg/mL | MIC (MRSA 143; Staphylococcus aureus, MRSA 143, read-out: Median MIC): 128 µg/mL | MIC (MRSA 56 (494); [4]): 128 µg/mL | MIC/Cefazolin (MRSA 56 (494); single determinations): 64 µg/mL and 128 µg/mL | MIC/Cefazolin (MRSA 148; MRSA 148, single determinations): 256 µg/mL and 128 µg/mL | MIC (MRSA 148; Staphylococcus aureus, MRSA 148, read-out: Median MIC): 256 µg/mL | MIC/Cefazolin (MRSA 149; MRSA 149, single determinations): 128 µg/mL | MIC (MRSA 149; Staphylococcus aureus, MRSA 149, read-out: Median MIC): 128 µg/mL | MIC/Cefazolin (MRSA 142 ATCC 33591 MRSA; MRSA 142 ATCC 33591, single determinations): 256 µg/mL | MIC (MRSA 142 ATCC 33591 MRSA; Staphylococcus aureus, MRSA 142 ATCC 33591, read-out: Median MIC): 256 µg/mL | MIC/Cefazolin (MRSA 116; MRSA 116, single determinations): 512 µg/mL and 256 µg/mL | MIC (MRSA 116; Staphylococcus aureus, MRSA 116, read-out: Median MIC): 256 µg/mL | MIC/Cefazolin (MRSA 152; MRSA 152, single determinations): 4 µg/mL and 8 µg/mL | MIC (MRSA 152; Staphylococcus aureus, MRSA 152, read-out: Median MIC): 4 µg/mL | MIC/Cefazolin (MRSA 150; MRSA 150, single determinations): 512 µg/mL | MIC (MRSA 150; Staphylococcus aureus, MRSA 150, read-out: Median MIC): 512 µg/mL | MIC (Mu 50 MRSA VISA; [4]): 256 µg/mL | MIC/Cefazolin (Mu 50 MRSA VISA; single determinations): 256 µg/mL | tissue level to achieve minimum inhibitory concentrations for 80% (MIC80) of four bacterial species [3]: about 4 μg/ml
